Test results as given in patent US6358885B1, “Substituted phenylheterocyclic herbicides” (Mississippi State University, priority 1992, dated 2002).

Assays:
Assay in all cases: Test F preemergence/postemergence greenhouse plant response rating 0 to 100
Settings in all cases: 0 to 100 scale
[1] = system: field violet; assay type: in vivo, Viola arvensis
Excerpt: (§1) Compounds evaluated in this test were formulated in a non-phytoxic solvent and applied to the soil surface before plant seedlings emerged (preemergence application) and to plants that were in the one-to-four leaf stage (postemergence application). A sandy loam soil was used for the preemergence test while a mixture of sandy loam soil and greenhouse potting mix in a 60:40 ratio was used for the postemergence test. Test compounds were applied within approximately one day after planting seeds for the preemergence test. Plantings of these crops and weed species were adjusted to produce plants of appropriate size for the postemergence test. All plant species were grown using normal greenhouse practices. Crop and weed species include winter barley (Hordeum vulgare cv. ‘Igri’), blackgrass (Alopecurus myosuroides), chickweed (Stellaria media), downy brome (Bromus tectorum), field violet (Viola arvensis), galium (Galium aparine), green foxtail (Setaria viridis), kochia (Kochia scoparia), lambsquarters (Chenopodium album), speedwell (Veronica persica), rape (Brassica napus), ryegrass (Lolium multiflorum), sugar beet (Beta vulgaris cv. ‘USl’), sunflower (Helianthus annuus cv. ‘Russian Giant’), spring wheat (Triticum aestivum cv. ‘ERA’), winter wheat (Triticum aestivum cv. ‘Talent’), wild buckwheat (Polygonum convolvulus), wild mustard (Sinapis arvensis), wild oat (Avena fatua), and wild radish (Raphanus raphanistrum). Blackgrass, galium and wild oat were treated at two growth stages. […] Treated plants and untreated controls were maintained in a greenhouse for approximately 21 to 28 days, after which all treated plants were compared to untreated controls and visually evaluated. […] A dash response (-) means no test result.

[2] = system: galium; assay type: in vivo, Galium aparine
Excerpt: as §1

[3] = system: wild buckwheat; assay type: in vivo, Polygonum convolvulus
Excerpt: as §1

[4] = system: downy brome; assay type: in vivo, Bromus tectorum
Excerpt: as §1

[5] = system: spring wheat; assay type: in vivo, Triticum aestivum cv. ‘ERA’
Excerpt: as §1

[6] = system: rape; assay type: in vivo, Brassica napus
Excerpt: as §1

[7] = system: speedwell; assay type: in vivo, Veronica persica
Excerpt: as §1

Structure (SMILES): C#CCOc1cc(-c2nn3c(c2Br)CCCC3)c(F)cc1Cl [Compound 26]
- Field violet plant response rating ([1]; POSTEMERGENCE, Rate 4 g/ha): 100
- Field violet plant response rating ([1]; POSTEMERGENCE, Rate 8 g/ha): 100
- Field violet plant response rating ([1]; POSTEMERGENCE, Rate 16 g/ha): 100
- Field violet plant response rating ([1]; POSTEMERGENCE, Rate 32 g/ha): 100
- Field violet plant response rating ([1]; POSTEMERGENCE, Rate 64 g/ha): 100
- Field violet plant response rating ([1]; POSTEMERGENCE, Rate 125 g/ha): 100
- Field violet plant response rating ([1]; POSTEMERGENCE, Rate 250 g/ha): 100
- Field violet plant response rating ([1]; PREEMERGENCE, Rate 4 g/ha): 0
- Field violet plant response rating ([1]; PREEMERGENCE, Rate 8 g/ha): 0
- Field violet plant response rating ([1]; PREEMERGENCE, Rate 16 g/ha): 70
- Field violet plant response rating ([1]; PREEMERGENCE, Rate 32 g/ha): 100
- Field violet plant response rating ([1]; PREEMERGENCE, Rate 64 g/ha): 100
- Field violet plant response rating ([1]; PREEMERGENCE, Rate 125 g/ha): 100
- Field violet plant response rating ([1]; PREEMERGENCE, Rate 250 g/ha): 100
- Galium (1) plant response rating ([2]; POSTEMERGENCE, Rate 4 g/ha, stage (1) two to three leaves): 0
- Galium (2) plant response rating ([2]; POSTEMERGENCE, Rate 4 g/ha, stage (2) approximately four leaves or initial tillering): 50
- Galium (1) plant response rating ([2]; POSTEMERGENCE, Rate 8 g/ha, stage (1) two to three leaves): 0
- Galium (2) plant response rating ([2]; POSTEMERGENCE, Rate 8 g/ha, stage (2) approximately four leaves or initial tillering): 50
- Galium (1) plant response rating ([2]; POSTEMERGENCE, Rate 16 g/ha, stage (1) two to three leaves): 30
- Galium (2) plant response rating ([2]; POSTEMERGENCE, Rate 16 g/ha, stage (2) approximately four leaves or initial tillering): 100
- Galium (1) plant response rating ([2]; POSTEMERGENCE, Rate 32 g/ha, stage (1) two to three leaves): 50
- Galium (2) plant response rating ([2]; POSTEMERGENCE, Rate 32 g/ha, stage (2) approximately four leaves or initial tillering): 60
- Galium (1) plant response rating ([2]; POSTEMERGENCE, Rate 64 g/ha, stage (1) two to three leaves): 100
- Galium (2) plant response rating ([2]; POSTEMERGENCE, Rate 64 g/ha, stage (2) approximately four leaves or initial tillering): 100
- Galium (1) plant response rating ([2]; POSTEMERGENCE, Rate 125 g/ha, stage (1) two to three leaves): 100
- Galium (2) plant response rating ([2]; POSTEMERGENCE, Rate 125 g/ha, stage (2) approximately four leaves or initial tillering): 100
- Galium (1) plant response rating ([2]; POSTEMERGENCE, Rate 250 g/ha, stage (1) two to three leaves): 100
- Galium (2) plant response rating ([2]; POSTEMERGENCE, Rate 250 g/ha, stage (2) approximately four leaves or initial tillering): 100
- Galium (1) plant response rating ([2]; PREEMERGENCE, Rate 4 g/ha, Galium (1)): 0
- Galium (2) plant response rating ([2]; PREEMERGENCE, Rate 4 g/ha, Galium (2)): 0
- Galium (1) plant response rating ([2]; PREEMERGENCE, Rate 8 g/ha, Galium (1)): 0
- Galium (2) plant response rating ([2]; PREEMERGENCE, Rate 8 g/ha, Galium (2)): 20
- Galium (1) plant response rating ([2]; PREEMERGENCE, Rate 16 g/ha, Galium (1)): 0
- Galium (2) plant response rating ([2]; PREEMERGENCE, Rate 16 g/ha, Galium (2)): 40
- Galium (1) plant response rating ([2]; PREEMERGENCE, Rate 32 g/ha, Galium (1)): 100
- Galium (2) plant response rating ([2]; PREEMERGENCE, Rate 32 g/ha, Galium (2)): 100
- Galium (1) plant response rating ([2]; PREEMERGENCE, Rate 64 g/ha, Galium (1)): 100
- Galium (2) plant response rating ([2]; PREEMERGENCE, Rate 64 g/ha, Galium (2)): 100
- Galium (1) plant response rating ([2]; PREEMERGENCE, Rate 125 g/ha, Galium (1)): 100
- Galium (2) plant response rating ([2]; PREEMERGENCE, Rate 125 g/ha, Galium (2)): 100
- Galium (1) plant response rating ([2]; PREEMERGENCE, Rate 250 g/ha, Galium (1)): 100
- Galium (2) plant response rating ([2]; PREEMERGENCE, Rate 250 g/ha, Galium (2)): 100
- Wild buckwheat plant response rating ([3]; POSTEMERGENCE, Rate 4 g/ha): 100
- Wild buckwheat plant response rating ([3]; POSTEMERGENCE, Rate 8 g/ha): 100
- Wild buckwheat plant response rating ([3]; POSTEMERGENCE, Rate 16 g/ha): 100
- Wild buckwheat plant response rating ([3]; POSTEMERGENCE, Rate 32 g/ha): 100
- Wild buckwheat plant response rating ([3]; POSTEMERGENCE, Rate 64 g/ha): 100
- Wild buckwheat plant response rating ([3]; POSTEMERGENCE, Rate 125 g/ha): 100
- Wild buckwheat plant response rating ([3]; POSTEMERGENCE, Rate 250 g/ha): 100
- Wild buckwheat plant response rating ([3]; PREEMERGENCE, Rate 4 g/ha): 0
- Wild buckwheat plant response rating ([3]; PREEMERGENCE, Rate 8 g/ha): 0
- Wild buckwheat plant response rating ([3]; PREEMERGENCE, Rate 16 g/ha): 30
- Wild buckwheat plant response rating ([3]; PREEMERGENCE, Rate 32 g/ha): 100
- Wild buckwheat plant response rating ([3]; PREEMERGENCE, Rate 64 g/ha): 100
- Wild buckwheat plant response rating ([3]; PREEMERGENCE, Rate 125 g/ha): 100
- Wild buckwheat plant response rating ([3]; PREEMERGENCE, Rate 250 g/ha): 100
- Downy brome plant response rating ([4]; POSTEMERGENCE, Rate 4 g/ha): 0
- Downy brome plant response rating ([4]; POSTEMERGENCE, Rate 8 g/ha): 0
- Downy brome plant response rating ([4]; POSTEMERGENCE, Rate 16 g/ha): 0
- Downy brome plant response rating ([4]; POSTEMERGENCE, Rate 32 g/ha): 0
- Downy brome plant response rating ([4]; POSTEMERGENCE, Rate 64 g/ha): 30
- Downy brome plant response rating ([4]; POSTEMERGENCE, Rate 125 g/ha): 50
- Downy brome plant response rating ([4]; POSTEMERGENCE, Rate 250 g/ha): 10
- Downy brome plant response rating ([4]; PREEMERGENCE, Rate 4 g/ha): 0
- Downy brome plant response rating ([4]; PREEMERGENCE, Rate 8 g/ha): 0
- Downy brome plant response rating ([4]; PREEMERGENCE, Rate 16 g/ha): 0
- Downy brome plant response rating ([4]; PREEMERGENCE, Rate 32 g/ha): 0
- Downy brome plant response rating ([4]; PREEMERGENCE, Rate 64 g/ha): 0
- Downy brome plant response rating ([4]; PREEMERGENCE, Rate 125 g/ha): 30
- Downy brome plant response rating ([4]; PREEMERGENCE, Rate 250 g/ha): 40
- Wheat (Spring) plant response rating ([5]; POSTEMERGENCE, Rate 4 g/ha): 0
- Wheat (Spring) plant response rating ([5]; POSTEMERGENCE, Rate 8 g/ha): 0
- Wheat (Spring) plant response rating ([5]; POSTEMERGENCE, Rate 16 g/ha): 0
- Wheat (Spring) plant response rating ([5]; POSTEMERGENCE, Rate 32 g/ha): 15
- Wheat (Spring) plant response rating ([5]; POSTEMERGENCE, Rate 64 g/ha): 15
- Wheat (Spring) plant response rating ([5]; POSTEMERGENCE, Rate 125 g/ha): 15
- Wheat (Spring) plant response rating ([5]; POSTEMERGENCE, Rate 250 g/ha): 20
- Wheat (Spring) plant response rating ([5]; PREEMERGENCE, Rate 4 g/ha): 0
- Wheat (Spring) plant response rating ([5]; PREEMERGENCE, Rate 8 g/ha): 0
- Wheat (Spring) plant response rating ([5]; PREEMERGENCE, Rate 16 g/ha): 0
- Wheat (Spring) plant response rating ([5]; PREEMERGENCE, Rate 32 g/ha): 0
- Wheat (Spring) plant response rating ([5]; PREEMERGENCE, Rate 64 g/ha): 0
- Wheat (Spring) plant response rating ([5]; PREEMERGENCE, Rate 125 g/ha): 15
- Wheat (Spring) plant response rating ([5]; PREEMERGENCE, Rate 250 g/ha): 20
- Rape plant response rating ([6]; POSTEMERGENCE, Rate 4 g/ha): 0
- Rape plant response rating ([6]; POSTEMERGENCE, Rate 8 g/ha): 0
- Rape plant response rating ([6]; POSTEMERGENCE, Rate 16 g/ha): 50
- Rape plant response rating ([6]; POSTEMERGENCE, Rate 32 g/ha): 100
- Rape plant response rating ([6]; POSTEMERGENCE, Rate 64 g/ha): 100
- Rape plant response rating ([6]; POSTEMERGENCE, Rate 125 g/ha): 100
- Rape plant response rating ([6]; POSTEMERGENCE, Rate 250 g/ha): 100
- Rape plant response rating ([6]; PREEMERGENCE, Rate 4 g/ha): 0
- Rape plant response rating ([6]; PREEMERGENCE, Rate 8 g/ha): 0
- Rape plant response rating ([6]; PREEMERGENCE, Rate 16 g/ha): 0
- Rape plant response rating ([6]; PREEMERGENCE, Rate 32 g/ha): 20
- Rape plant response rating ([6]; PREEMERGENCE, Rate 64 g/ha): 60
- Rape plant response rating ([6]; PREEMERGENCE, Rate 125 g/ha): 80
- Rape plant response rating ([6]; PREEMERGENCE, Rate 250 g/ha): 100
- Persn Speedwell plant response rating ([7]; POSTEMERGENCE, Rate 4 g/ha): 60
- Persn Speedwell plant response rating ([7]; POSTEMERGENCE, Rate 8 g/ha): 60
- Persn Speedwell plant response rating ([7]; POSTEMERGENCE, Rate 32 g/ha): 100
- Persn Speedwell plant response rating ([7]; POSTEMERGENCE, Rate 64 g/ha): 100
- Persn Speedwell plant response rating ([7]; POSTEMERGENCE, Rate 125 g/ha): 100
- Persn Speedwell plant response rating ([7]; POSTEMERGENCE, Rate 250 g/ha): 100
- Persn Speedwell plant response rating ([7]; PREEMERGENCE, Rate 4 g/ha): 50
- Persn Speedwell plant response rating ([7]; PREEMERGENCE, Rate 8 g/ha): 80
- Persn Speedwell plant response rating ([7]; PREEMERGENCE, Rate 16 g/ha): 100
- Persn Speedwell plant response rating ([7]; PREEMERGENCE, Rate 32 g/ha): 100
- Persn Speedwell plant response rating ([7]; PREEMERGENCE, Rate 64 g/ha): 100
- Persn Speedwell plant response rating ([7]; PREEMERGENCE, Rate 125 g/ha): 100
